Data taken from US20030207924A1, “Compounds that modulate PPAR activity and methods of preparation” (priority 2002, published 2003).

Columns and labels:
hPPARβ chimeric receptor = target: T1, hPPARβ chimeric receptor (Homo sapiens, UniProt Q03181); test: Transient transfection assay in HepG2 cells, Gal4-hPPARβ chimeric receptor, luciferase reporter (Test A); type: cell-based
T1 construct: "expression plasmids encoding hPPARα, hPPARβ or mPPARγ chimeric receptors"
T1 sequence (Q03181 171-441 limits assumed): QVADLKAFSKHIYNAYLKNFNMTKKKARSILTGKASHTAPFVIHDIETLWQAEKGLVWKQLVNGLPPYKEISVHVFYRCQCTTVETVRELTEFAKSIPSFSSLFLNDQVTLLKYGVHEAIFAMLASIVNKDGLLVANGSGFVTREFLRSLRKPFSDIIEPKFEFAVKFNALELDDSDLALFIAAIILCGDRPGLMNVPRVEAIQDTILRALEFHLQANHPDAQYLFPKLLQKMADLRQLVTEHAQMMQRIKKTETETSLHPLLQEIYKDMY
Method: (§1) 1. Test A. Transient Transfections Assay Using the HepG2 Hepatoma Cell Line.
(§2) HepG2 cells were transiently transfected with an expression plasmids encoding hPPARα, hPPARβ or mPPARγ chimeric receptors and a reporter containing the yeast upstream activating sequence (UAS) upstream of the viral E1B promoter controlling a luciferase reporter gene. In addition, the plasmid pRSVβ-gal was used to control for transfection efficiency. HepG2 cells were grown in DMEM supplemented with 10% FBS and […] non-essential amino acid. On the first day, cells were split into 100 mm dishes at 2.5×10^6/dish and incubated overnight at 37° C./5% CO2. On the second day the cells were transiently transfected with plasmid DNA encoding a chimeric receptor, the luciferase reporter gene; and β-gal. For each 100 mm dish, 15 μg of lucifease reporter (PG5E1b) DNA, 15 μg of Gal4-PPAR chimeric receptor DNA, and 1.5 μg of β-gal plasmid DNA were mixed with 1.4 ml of opti-MEM in the tube. 28 μl of LipoFectamine-2000 reagent was added to 1.4 ml of opti-MEM in the tube, and incubate for 5 min at RT. The diluted Lipofectamine-2000 reagent was combined with the DNA mixture, and incubate for 20 min at RT. After fresh medium was added to each 100 mm dish of cells, 2.8 ml of Lipofectamine2000-DNA mixture was added dropwise to the 100 mm dish containing 14 ml of medium, and incubate 37° C. overnight. On day three cells were trypsinized off the 100 mm dishes and re-plated on 96 well plates. Cells were plated at 2.5×10^4 cells per well in 150 μl of media and 50 μl of compound diluted by media was added. The test compounds added were in the range from 50 μM to 50 pM. After addition of compounds, the plates were incubated at 37° C. for 24 hours. Subsequently cells were washed with once with 100 μl of PBS, lysed, and processed for measuring luciferase and β-gal activity using Dual-Light luciferase kit from Tropix®, according to the manufacturer's recommendations, on an EG&G Bethold MicroLumat LB96P luminometer. EC50 values were obtained using the GraphPad Prism™ program.

hPPARα chimeric receptor = target: T2, hPPARα chimeric receptor (Homo sapiens, UniProt Q07869); test: Transient transfection assay in HepG2 cells, Gal4-hPPARα chimeric receptor, luciferase reporter (Test A); type: cell-based; details: HepG2 cells, hPPARα chimeric receptor, luciferase reporter, 24 hours; read-out: EC50-α (Hep G2-hAlpha EC50)
T2 construct: "expression plasmids encoding hPPARα, hPPARβ or mPPARγ chimeric receptors"
T2 sequence (Q07869 200-468 limits assumed): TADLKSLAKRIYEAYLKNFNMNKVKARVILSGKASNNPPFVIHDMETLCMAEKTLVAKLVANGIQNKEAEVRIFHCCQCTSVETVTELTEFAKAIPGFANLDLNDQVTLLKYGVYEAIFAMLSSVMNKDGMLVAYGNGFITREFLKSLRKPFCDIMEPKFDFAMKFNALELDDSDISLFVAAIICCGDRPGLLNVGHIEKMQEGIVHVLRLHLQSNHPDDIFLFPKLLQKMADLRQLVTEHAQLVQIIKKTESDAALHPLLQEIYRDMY
Method: as §1
as §2, with “program. […] Accordingly, the compounds of the present invention should find considerable therapeutic applications for hypercholesterolemia and hyperlipidemia.” for “program.”

Cc1nc(-c2ccc(C(F)(F)F)cc2)sc1CSc1ccc([C@@H]2CC2C(=O)O)cc1 (stereo in doubt) [Example 12, 2-{4-[4-Methyl-2-(4-trifluoromethyl-phenyl)-thiazol-5-ylmethylsulfanyl]-phenyl}-cyclopropanecarboxylic acid]
EC50 (hPPARβ chimeric receptor): 303 nM
EC50 (hPPARα chimeric receptor): 135 nM

COc1cc(OCC(=O)O)c(C)cc1SCc1sc(-c2ccc(C(F)(F)F)cc2)nc1C [Example 5, {5-Methoxy-2-methyl-4-[4-methyl-2-(4-trifluoromethyl-phenyl)-thiazol-5-ylmethylsulfanyl]-phenoxy}-acetic acid]
EC50 (hPPARβ chimeric receptor): 2.3 nM
EC50 (hPPARα chimeric receptor): 121 nM

Cc1nc(-c2ccc(C(F)(F)F)cc2)sc1CSc1ccc(C2(C(=O)O)CC2)cc1 [Example 13, 1-{4-[4-Methyl-2-(4-trifluoromethyl-phenyl)-thiazol-5-ylmethylsulfanyl]-phenyl}-cyclopropanecarboxylic acid]
EC50 (hPPARβ chimeric receptor): 47.6 nM
EC50 (hPPARα chimeric receptor): 1100 nM

Cc1cc(SCc2sc(-c3ccc(C(F)(F)F)cc3)nc2C)cc(C)c1OCC(=O)O [Example 4, {2,6-Dimethyl-4-[4-methyl-2-(4-trifluoromethyl-phenyl)-thiazol-5-ylmethylsulfanyl]-phenoxy}-acetic acid]
EC50 (hPPARβ chimeric receptor): 23.4 nM
EC50 (hPPARα chimeric receptor): 161 nM

Cc1cc(SCc2sc(-c3ccc(C(F)(F)F)cc3)nc2C)c(C(C)C)cc1OCC(=O)O [Example 3, {5-Isopropyl-2-methyl-4-[4-methyl-2-(4-trifluoromethyl-phenyl)-thiazol-5-ylmethylsulfanyl]-phenoxy}-acetic acid]
EC50 (hPPARβ chimeric receptor): 1280 nM
EC50 (hPPARα chimeric receptor): 538 nM

Cc1cc(OCC(=O)O)c(C(C)C)cc1SCc1sc(-c2ccc(C(F)(F)F)cc2)nc1C [Example 9, {2-Isopropyl-5-methyl-4-[4-methyl-2-(4-trifluoromethyl-phenyl)-thiazol-5-ylmethylsulfanyl]-phenoxy}-acetic acid]
EC50 (hPPARβ chimeric receptor): 891 nM
EC50 (hPPARα chimeric receptor): 5750 nM
